In patent US11773094B2, “Farnesoid X receptor agonists and uses thereof” (Metacrine, Inc., priority 2018, dated 2023):

Target: T1, hFXR (Homo sapiens, UniProt Q96RI1)
T1 construct: expressed in transfected cells; host or cells: CV-1 cells
T1 sequence (Q96RI1 1-486): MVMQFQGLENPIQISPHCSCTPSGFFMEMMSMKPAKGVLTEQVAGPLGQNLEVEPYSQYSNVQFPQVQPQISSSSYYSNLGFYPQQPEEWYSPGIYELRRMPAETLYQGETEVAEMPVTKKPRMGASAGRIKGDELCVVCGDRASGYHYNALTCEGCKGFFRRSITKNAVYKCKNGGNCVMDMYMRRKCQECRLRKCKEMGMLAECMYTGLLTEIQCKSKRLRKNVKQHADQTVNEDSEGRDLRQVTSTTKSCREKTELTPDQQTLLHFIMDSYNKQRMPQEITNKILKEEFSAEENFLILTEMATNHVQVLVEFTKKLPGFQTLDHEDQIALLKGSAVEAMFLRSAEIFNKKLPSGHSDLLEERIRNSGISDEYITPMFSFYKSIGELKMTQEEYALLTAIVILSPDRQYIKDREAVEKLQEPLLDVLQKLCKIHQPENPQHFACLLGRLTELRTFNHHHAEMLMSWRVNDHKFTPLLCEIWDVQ
T1 sequence (P19793 1-462 partner): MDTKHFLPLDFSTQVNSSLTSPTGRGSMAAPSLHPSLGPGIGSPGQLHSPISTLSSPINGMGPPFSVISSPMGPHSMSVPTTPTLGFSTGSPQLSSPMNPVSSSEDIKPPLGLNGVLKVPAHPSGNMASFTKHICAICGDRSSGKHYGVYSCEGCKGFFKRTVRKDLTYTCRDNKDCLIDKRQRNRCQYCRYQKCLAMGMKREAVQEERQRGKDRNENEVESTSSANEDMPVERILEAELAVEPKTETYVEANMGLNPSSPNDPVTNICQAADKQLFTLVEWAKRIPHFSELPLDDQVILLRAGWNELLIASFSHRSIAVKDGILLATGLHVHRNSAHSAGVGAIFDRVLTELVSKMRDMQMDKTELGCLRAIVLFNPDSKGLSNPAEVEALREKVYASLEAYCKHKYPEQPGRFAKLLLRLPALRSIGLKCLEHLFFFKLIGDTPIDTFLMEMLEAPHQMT
Experiment: In Vitro FXR Assay (TK): TK-ECRE-luc reporter in transfected CV-1 cells
Format: cell-based
Conditions: CV-1 cells transfected with hFXR, hRXR, pCMX-YFP, 18 hrs incubation, luminescence
Experimental: Example B-1: In Vitro FXR Assay (TK)
CV-1 cells were seeded at a density of 2,000,000 cells in a T175 flask with DMEM+10% charcoal double-stripped FBS and incubated at 37° C. in 5% CO2 for 18 h (O/N).
After 18 h of incubation, the medium in the T175 flask was changed with fresh DMEM+10% charcoal super-stripped serum. In a polypropylene tube, 2500 μL OptiMEM (Life Technologies, Cat #31985-062) was combined with expression plasmids for hFXR, hRXR, TK-ECRE-luc and pCMX-YFP. The tube was then briefly vortexed and incubated at room temperature for 5 minutes. Transfection reagent (X-tremeGENE HP from Roche, Cat #06 366 236 001) was added to the OptiMEM/plasmid mixture vortexed and incubated at room temperature for 20 minutes. Following incubation, the transfection reagent/DNA mixture complex was added to cells in the T175 flask and the cells were incubated at 37° C. in 5% CO2 for 18 h (O/N).
Compounds were serially diluted in DMSO and added to transfected CV-1 cells. The cells were then incubated for 18 hrs. The next day cells were lysed and examined for luminescence.

EC50 [µM]	SMILES
0.01 to 1	COc1ccc([C@H]2CC[C@H](CN(c3cc(-c4coc(C(C)(C)C)n4)ccn3)C(=O)[C@H]3CC[C@H](OC(=O)N4CC(O)C4)CC3)CC2)cc1C [Compound 1.04, trans-4-((4-(2-(tert-Butyl)oxazol-4-yl)pyridin-2-yl)(((trans)-4-(4-methoxy-3-methylphenyl)cyclohexyl)methyl)carbamoyl) cyclohexyl 3-hydroxyazetidine-1-carboxylate]
≤ 0.01	COc1ccc(C23CCC(CN(c4cc(-c5coc(C(C)(C)C)n5)ccn4)C(=O)[C@H]4CC[C@H](OC(=O)N5CC(O)C5)CC4)(CC2)CC3)cc1C [Compound 3.10, 4-((4-(2-(tert-Butyl)oxazol-4-yl)pyridin-2-yl)((4-(4-methoxy-3-methylphenyl)bicyclo[2.2.2]octan-1-yl)methyl)carbamoyl)cyclohexyl 3-hydroxyazetidine-trans-1-carboxylate]
0.01 to 1	COc1ccc([C@H]2CC[C@H](CN(c3cc(-c4coc(C(C)(C)C)n4)ccn3)C(=O)[C@H]3CC[C@H](OC(=O)NC4CCOCC4)CC3)CC2)cc1C [Compound 1.07, trans-4-((4-(2-(tert-Butyl)oxazol-4-yl)pyridin-2-yl)(((trans)-4-(4-methoxy-3-methylphenyl)cyclohexyl)methyl)carbamoyl) cyclohexyl (tetrahydro-2H-pyran-4-yl)carbamate]
≤ 0.01	COc1ccc(C23CCC(CN(c4cc(-c5cnn(C(C)(C)C)c5)ccn4)C(=O)[C@H]4CC[C@H](OC(=O)N5CC[C@@H](O)C5)CC4)(CC2)CC3)cc1C [Compound 2.33, (R)-4-((4-(1-(tert-Butyl)-1H-pyrazol-4-yl)pyridin-2-yl)((4-(4-methoxy-3-methylphenyl)bicyclo[2.2.2]octan-1-yl)methyl)carbamoyl) cyclohexyl trans-3-hydroxypyrrolidine-1-carboxylate]
≤ 0.01	COc1ccc(C23CCC(CN(c4cc(-c5cnc(C(C)(C)C)s5)ccn4)C(=O)[C@H]4CC[C@H](OC(=O)N5CC(O)C5)CC4)(CC2)CC3)cc1C [Compound 3.07, 4-((4-(2-(tert-Butyl)thiazol-5-yl)pyridin-2-yl)((4-(4-methoxy-3-methylphenyl)bicyclo[2.2.2]octan-1-yl)methyl)carbamoyl) cyclohexyl trans-3-hydroxyazetidine-1-carboxylate]
≤ 0.01	COc1ccc(C23CCC(CN(c4cc(-c5cnn(C(C)(C)C)c5)ccn4)C(=O)[C@H]4CC[C@H](OC(=O)N5CC(OCCO)C5)CC4)(CC2)CC3)cc1C [Compound 2.25, 4-((4-(1-(tert-Butyl)-1H-pyrazol-4-yl)pyridin-2-yl)((4-(4-methoxy-3-methylphenyl)bicyclo[2.2.2]octan-1-yl)methyl)carbamoyl) (trans-cyclohexyl) 3-(2-hydroxyethoxy)azetidine-1-carboxylate]
≤ 0.01	COc1ccc(C23CCC(CN(c4cc(-c5cnn(C(C)(C)C(F)(F)F)c5)ccn4)C(=O)[C@H]4CC[C@H](OC(=O)N5CC(O)C5)CC4)(CC2)CC3)cc1C [Compound 4.09, 4-(((4-(4-Methoxy-3-methylphenyl)bicyclo[2.2.2]octan-1-yl)methyl)(4-(1-(1,1,1-trifluoro-2-methylpropan-2-yl)-1H-pyrazol-4-yl)pyridin-2-yl)carbamoyl)cyclohexyl trans-3-hydroxyazetidine-1-carboxylate]
≤ 0.01	COc1ccc(C23CCC(CN(c4cc(-c5cnn(C(C)(C)C)c5)ccn4)C(=O)[C@H]4CC[C@H](OC(=O)N5CC[C@H](O)C5)CC4)(CC2)CC3)cc1C [Compound 2.34, (S)-4-((4-(1-(tert-Butyl)-1H-pyrazol-4-yl)pyridin-2-yl)((4-(4-methoxy-3-methylphenyl)bicyclo[2.2.2]octan-1-yl)methyl)carbamoyl) cyclohexyl trans-3-hydroxypyrrolidine-1-carboxylate]
≤ 0.01	COc1ccc(C23CCC(CN(c4cc(-c5cnc(C(C)(C)C)s5)ccn4)C(=O)[C@H]4CC[C@H](OC(=O)N5CCC(O)CC5)CC4)(CC2)CC3)cc1C [Compound 2.05, 4-((4-(2-(tert-Butyl)thiazol-5-yl)pyridin-2-yl)((4-(4-methoxy-3-methylphenyl)bicyclo[2.2.2]octan-1-yl)methyl)carbamoyl)cyclohexyl 4-hydroxypiperidine- trans-1-carboxylate]
≤ 0.01	COc1ccc(C23CCC(CN(c4cc(-c5coc(C(C)(C)C)n5)ccn4)C(=O)[C@H]4CC[C@H](OC(=O)N5CCC(O)CC5)CC4)(CC2)CC3)cc1C [Compound 2.17, 4-((4-(2-(tert-Butyl)oxazol-4-yl)pyridin-2-yl)((4-(4-methoxy-3-methylphenyl)bicyclo[2.2.2]octan-1-yl)methyl)carbamoyl)cyclohexyl 4-hydroxypiperidine- trans-1-carboxylate]
0.01 to 1	COc1ccc(C23CCC(CN(c4cc(-c5cnn(C(C)(C)C)c5)ccn4)C(=O)[C@H]4CC[C@H](OC(=O)NC5CCSCC5)CC4)(CC2)CC3)cc1C [Compound 2.29, 4-((4-(1-(tert-Butyl)-1H-pyrazol-4-yl)pyridin-2-yl)((4-(4-methoxy-3-methylphenyl)bicyclo[2.2.2]octan-1-yl)methyl)carbamoyl)cyclohexyl trans-(tetrahydro-2H-thiopyran-4-yl)carbamate]
0.01 to 1	COc1ccc(C23CCC(CN(c4cncc(-c5cnn(C(C)(C)C)c5)n4)C(=O)[C@H]4CC[C@H](OC(=O)N5CC(O)C5)CC4)(CC2)CC3)cc1C [Compound 3.12, 4-((6-(1-(tert-Butyl)-1H-pyrazol-4-yl)pyrazin-2-yl)((4-(4-methoxy-3-methylphenyl)bicyclo[2.2.2]octan-1-yl)methyl)carbamoyl) (trans-cyclohexyl) 3-hydroxyazetidine-1-carboxylate]
≤ 0.01	COc1ccc(C23CCC(CN(c4cc(-c5cnn(C(C)(C)C)c5)ccn4)C(=O)[C@H]4CC[C@H](OC(=O)N5CC(CS(C)(=O)=O)C5)CC4)(CC2)CC3)cc1C [Compound 2.24, 4-((4-(1-(tert-Butyl)-1H-pyrazol-4-yl)pyridin-2-yl)((4-(4-methoxy-3-methylphenyl)bicyclo[2.2.2]octan-1-yl)methyl)carbamoyl) (trans-cyclohexyl) 3-((methylsulfonyl)methyl) azetidine-1-carboxylate]
≤ 0.01	COc1ccc(C23CCC(CN(c4cc(-c5cnc(C(C)(C)C)s5)ccn4)C(=O)[C@H]4CC[C@H](OC(=O)NCCC(C)(C)O)CC4)(CC2)CC3)cc1C [Compound 2.08, 4-((4-(2-(tert-Butyl)thiazol-5-yl)pyridin-2-yl)((4-(4-methoxy-3-methylphenyl)bicyclo[2.2.2]octan-1-yl)methyl)carbamoyl) (trans-cyclohexyl) (3-hydroxy-3-methylbutyl)carbamate]
≤ 0.01	COc1ccc([C@]23CC[C@@](CN(c4cc(-c5cnn(C(C)(C)C)c5)ccn4)C(=O)[C@H]4CC[C@H](OC(=O)N5CC(CO)C5)CC4)(CC2)CC3)cc1C [Compound 3.02, 4-((4-(1-(tert-Butyl)-1H-pyrazol-4-yl)pyridin-2-yl)(trans(4-(4-methoxy-3-methylphenyl)bicyclo[2.2.2]octan-1-yl)methyl)carbamoyl) (trans-cyclohexyl) 3-(hydroxymethyl)azetidine-1-carboxylate]
